Test results reported in patent US9951035B2, “Selective matrix metalloproteinase inhibitors” (University of Notre Dame du Lac, priority 2014, dated 2018).
Counter-ions that a name gives are not always drawn. Like-named read-outs stand apart in the source and are kept apart here.

Legend:
MMP-2 = MMP-2 (Homo sapiens (Human), UniProt P08253); assay: Enzyme inhibition studies, MMP-2; assay type: biochemical; conditions: slow-binding, Ki calculated from koff/kon
MMP-14 = MMP-14 (Homo sapiens (Human), UniProt P50281); assay: Enzyme inhibition studies, MMP-14 catalytic domain; assay type: biochemical
MMP-1 = MMP-1 (Homo sapiens (Human), UniProt P03956); assay: Enzyme inhibition studies, MMP-1 catalytic domain; assay type: biochemical; conditions: at 100 μM; listed as ND-336, HCl salt
Chain of MMP-1 (P03956 98-276): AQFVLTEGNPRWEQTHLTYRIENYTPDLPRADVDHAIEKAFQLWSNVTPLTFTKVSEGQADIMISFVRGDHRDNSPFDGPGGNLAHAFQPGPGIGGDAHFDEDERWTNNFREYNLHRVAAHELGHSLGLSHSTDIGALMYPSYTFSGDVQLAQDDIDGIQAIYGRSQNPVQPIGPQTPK

MMP-3 = MMP-3 (Homo sapiens (Human), UniProt P08254); assay: Enzyme inhibition studies, MMP-3 catalytic domain; assay type: biochemical; conditions: at 100 μM; listed as ND-336, HCl salt
Chain of MMP-3 (P08254 100-272): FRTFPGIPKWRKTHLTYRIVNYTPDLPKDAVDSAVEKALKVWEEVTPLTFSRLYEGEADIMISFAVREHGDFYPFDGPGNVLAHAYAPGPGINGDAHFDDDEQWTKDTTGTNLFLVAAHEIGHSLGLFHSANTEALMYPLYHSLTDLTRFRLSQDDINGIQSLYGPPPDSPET

ADAM9 = ADAM9 (Homo sapiens (Human), UniProt Q13443); assay: Enzyme inhibition studies, ADAM9; assay type: biochemical; conditions: at 100 μM; listed as ND-336, HCl salt
Chain of ADAM9 (Q13443 206-697): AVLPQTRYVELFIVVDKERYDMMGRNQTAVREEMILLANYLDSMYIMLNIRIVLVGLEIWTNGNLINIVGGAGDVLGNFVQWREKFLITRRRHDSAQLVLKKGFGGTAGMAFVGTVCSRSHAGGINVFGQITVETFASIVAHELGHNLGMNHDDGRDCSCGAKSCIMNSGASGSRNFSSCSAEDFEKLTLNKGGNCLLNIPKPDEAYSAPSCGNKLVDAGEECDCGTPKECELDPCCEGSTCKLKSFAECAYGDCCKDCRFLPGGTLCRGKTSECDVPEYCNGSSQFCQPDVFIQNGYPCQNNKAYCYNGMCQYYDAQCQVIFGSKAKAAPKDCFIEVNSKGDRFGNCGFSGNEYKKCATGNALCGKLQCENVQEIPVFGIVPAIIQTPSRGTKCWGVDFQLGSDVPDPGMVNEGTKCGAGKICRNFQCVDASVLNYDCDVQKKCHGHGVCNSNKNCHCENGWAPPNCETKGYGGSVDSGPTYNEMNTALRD

ADAM10 = ADAM10 (Homo sapiens (Human), UniProt O14672); assay: Enzyme inhibition studies, ADAM10; assay type: biochemical; conditions: at 100 μM; listed as ND-336, HCl salt
Chain of ADAM10 (O14672 214-672): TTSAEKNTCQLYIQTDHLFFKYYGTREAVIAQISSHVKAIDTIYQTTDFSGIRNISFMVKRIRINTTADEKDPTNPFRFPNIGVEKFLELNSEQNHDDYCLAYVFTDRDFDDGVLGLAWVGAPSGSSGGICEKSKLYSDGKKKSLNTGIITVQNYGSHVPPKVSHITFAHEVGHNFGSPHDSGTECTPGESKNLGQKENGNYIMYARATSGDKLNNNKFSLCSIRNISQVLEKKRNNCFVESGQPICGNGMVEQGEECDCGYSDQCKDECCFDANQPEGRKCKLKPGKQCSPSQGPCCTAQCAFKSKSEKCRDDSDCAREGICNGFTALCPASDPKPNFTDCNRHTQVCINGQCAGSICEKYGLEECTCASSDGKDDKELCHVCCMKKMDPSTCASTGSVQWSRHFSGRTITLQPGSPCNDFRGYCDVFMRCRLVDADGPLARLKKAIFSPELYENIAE

[1] = Stability in buffers of the kinetic assays; assay type: physicochemical; conditions: in words
Source text: Human recombinant active MMP-2 and MMP-7, and the catalytic domains of MMP-3 and MMP-14/MT1-MMP were purchased from EMD Chemicals, Inc. (San Diego, Calif., USA); human recombinant catalytic domains of MMP-1, MMP-8, and MMP-9 were purchased from Enzo Life Sciences, Inc. (Farmingdale, N.Y., USA); human recombinant active ADAM9 and ADAM10 were purchased from R&D Systems (Minneapolis, Minn., USA). Fluorogenic substrates MOCAc-Pro-Leu-Gly-Leu-A2pr(Dnp)-Ala-Arg-NH2 (for MMP-2, MMP-7, MMP-9 and MMP-14) and MOCAc-Arg-Pro-Lys-Pro-Val-Glu-Nva-Trp-Arg-Lys(Dnp)-NH2 (for MMP-3) were purchased from Peptides International (Louisville, Ky., USA); Mca-KPLGL-Dpa-AR-NH2 (for MMP-1, MMP-8 and ADAM10) and Mca-PLAQAV-Dpa-RSSSR-NH2 (for ADAM9) were purchased from R&D Systems (Minneapolis, Minn., USA). […] Inhibitor stock solutions (10 mM) were prepared fresh in DMSO before enzyme inhibition assays. We followed the same methodology for enzyme inhibition studies as reported by Page-McCaw et al. (Nat. Rev. Mol. Cell Biol. 2007, 8, 221-233). Enzyme inhibition studies were carried out using a Cary Eclipse fluorescence spectrophotometer (Varian, Walnut Creek, Calif., USA). Compounds 4, 5, 6 and 7 were stable in the buffers that were used in the kinetic assays.

[2] = Water solubility (filtrate of saturated aqueous solution, UPLC-MRM)

Chain of MMP-2 (P08253 110-660): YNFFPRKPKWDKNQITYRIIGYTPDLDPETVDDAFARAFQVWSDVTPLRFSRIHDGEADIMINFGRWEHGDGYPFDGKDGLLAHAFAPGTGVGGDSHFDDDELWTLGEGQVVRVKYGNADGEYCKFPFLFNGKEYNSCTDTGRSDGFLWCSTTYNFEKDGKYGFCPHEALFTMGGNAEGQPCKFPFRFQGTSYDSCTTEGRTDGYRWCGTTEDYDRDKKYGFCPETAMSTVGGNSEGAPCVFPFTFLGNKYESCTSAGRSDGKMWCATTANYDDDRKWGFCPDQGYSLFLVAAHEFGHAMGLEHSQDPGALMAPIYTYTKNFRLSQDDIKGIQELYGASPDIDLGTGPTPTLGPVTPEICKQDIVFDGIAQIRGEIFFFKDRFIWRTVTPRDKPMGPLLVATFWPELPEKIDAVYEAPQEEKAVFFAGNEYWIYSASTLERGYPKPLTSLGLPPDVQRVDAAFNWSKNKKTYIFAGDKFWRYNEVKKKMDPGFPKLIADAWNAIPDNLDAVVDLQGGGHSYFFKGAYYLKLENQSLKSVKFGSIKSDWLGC

Q: Which Ki (MMP-2; Ki) does the source give for NCc1ccc(Oc2ccc(S(=O)(=O)CC3CS3)cc2)cc1 (stereo not drawn) [Compound 5, (4-(4-((Thiiran-2-ylmethyl)sulfonyl)phenoxy)phenyl)methanamine HCl salt] here?
A: Its Ki is 85 ± 1 nM.

Q: And the Ki (MMP-2)?
A: The Ki was 85 nM.

Q: What about the Ki (MMP-14) of the same compound?
A: The Ki was 120 ± 10 nM.

Q: What about the Ki (MMP-14; catalytic domain, slow-binding, Ki from koff/kon) of the same compound?
A: Its Ki is 120 nM.

Q: And the Inhibition (MMP-1)?
A: Its Inhibition is “Ki (MMP-1) 4% inhibition at 100 μM”.

Q: What about the Inhibition (MMP-3) of the same compound?
A: Its Inhibition is “Ki (MMP-3) 23% inhibition at 100 μM”.

Q: And the Inhibition (ADAM9)?
A: Its Inhibition is “Ki (ADAM-9) 31% inhibition at 100 μM”.

Q: What about the Inhibition (ADAM10) of the same compound?
A: Its Inhibition is “Ki (ADAM-10) 14% inhibition at 100 μM”.

Q: And the “stability in the buffers used in the kinetic assays” value [1]?
A: Its value is “stable”.

Q: What about the Aq. solubility ([2]; HCl salt) of the same compound?
A: Its Aq. solubility is 4900 µg/mL.

Q: And the Aq. solubility ([2]; listed as ND-336, HCl salt)?
A: Its Aq. solubility is “Water Solubility 4.9 mg/mL”.

Q: And the solubility ([2]; thermodynamic from solid)?
A: Its solubility is 4900 µg/mL.
